Among the test systems are NCI-H23 lung; SK-MEL-2 melanoma; BT-549 breast; U251 CNS; SK-MEL-5 melanoma; RXF 393 renal; EKVX NSCLC; HCT-15 colon; HT29 colon; MALME-3M melanoma; HOP-92 NSCLC; UACC-257 melanoma.
Assay in all cases: NCI-60 cell line screen, 48 h

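Cells were grown in 96-well plates and exposed to each compound for 48 hours at five concentrations; endpoints were interpolated linearly between bracketing concentrations, or set to the highest concentration if not reached. The concentration for full growth arrest is given as TGI.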

For `O=C(O)C1=CN(c2ccncc2)C(c2ccco2)=CC1c1ccccc1[N+](=O)[O-]` (stereo unspecified), the TGI was 29.1 µM in the assay with NCI-H23 lung; 34.3 µM in the assay with SK-MEL-2 melanoma; 26.9 µM in the assay with BT-549 breast; 24.2 µM in the assay with U251 CNS; more than 49.6 µM with SK-MEL-5 melanoma; 15.5 µM in the assay with RXF 393 renal. In addition, the TGI in the assay on EKVX NSCLC amounted to 23.8 µM; in the assay on HCT-15 colon, 4.75 µM; in the assay with HT29 colon, 6.18 µM; in the assay with MALME-3M melanoma, 26.4 µM; in the assay with HOP-92 NSCLC, 27.7 µM; in the assay on UACC-257 melanoma, 5.35 µM.

Turning to `O=c1oc2ccc3ccccc3c2cc1-c1cn2c(n1)sc1ccccc12`, the TGI in the assay on NCI-H23 lung, in the assay with SK-MEL-2 melanoma, in the assay on BT-549 breast, in the assay on U251 CNS, with SK-MEL-5 melanoma and in the assay with RXF 393 renal was more than 100 µM throughout. For the same compound, the TGI in the assay on EKVX NSCLC, in the assay on HCT-15 colon, with HT29 colon, with MALME-3M melanoma, in the assay on HOP-92 NSCLC and with UACC-257 melanoma was more than 100 µM in each case.

`O=C(/C=C/c1ccc(O)c(O)c1)NC(COC(=O)/C=C/c1ccc(O)c(O)c1)C(=O)O` (stereo unspecified): the TGI with NCI-H23 lung, with SK-MEL-2 melanoma, with BT-549 breast, in the assay with U251 CNS, with SK-MEL-5 melanoma and in the assay with RXF 393 renal was more than 100 µM in each case. Further, the TGI with EKVX NSCLC, in the assay with HCT-15 colon, in the assay on HT29 colon, with MALME-3M melanoma, in the assay on HOP-92 NSCLC and in the assay on UACC-257 melanoma was more than 100 µM throughout.

For `COc1ccccc1N1C(=O)CSC1c1cc(OC)c(OC)c(OC)c1` (stereo unspecified), the TGI in the assay on NCI-H23 lung was more than 100 µM; in the assay on SK-MEL-2 melanoma, more than 100 µM; in the assay with BT-549 breast, 98.3 µM; with U251 CNS, more than 100 µM; with SK-MEL-5 melanoma, more than 100 µM; in the assay with RXF 393 renal it was more than 100 µM. The TGI in the assay on EKVX NSCLC, in the assay with HCT-15 colon, in the assay with HT29 colon, in the assay with MALME-3M melanoma, with HOP-92 NSCLC and with UACC-257 melanoma was more than 100 µM throughout.

As for `COC(=O)[C@]1(C)CCC[C@]2(C)[C@@H](CCC(=O)C(C)C)[C@]3(C=O)O[C@@H]3C[C@H]21`, the TGI in the assay with NCI-H23 lung was more than 100 µM; in the assay on SK-MEL-2 melanoma it was more than 100 µM; with BT-549 breast, 77.3 µM; with U251 CNS, more than 100 µM; in the assay with SK-MEL-5 melanoma, more than 100 µM; with RXF 393 renal it was 51.7 µM. Besides, the TGI in the assay with EKVX NSCLC, with HCT-15 colon, with HT29 colon, with MALME-3M melanoma, with HOP-92 NSCLC and in the assay on UACC-257 melanoma was more than 100 µM in each case.

As for `O=C1Nc2ccccc2/C1=C\c1c(-c2ccccc2)nc2n1CCS2`, the TGI in the assay on NCI-H23 lung worked out at 66.3 µM; with SK-MEL-2 melanoma, 28.5 µM; with BT-549 breast it was 43.7 µM; in the assay with U251 CNS, 45.3 µM; in the assay on SK-MEL-5 melanoma it was 30.2 µM; in the assay on RXF 393 renal it was 47.2 µM. The TGI in the assay with EKVX NSCLC is 52 µM; in the assay with HCT-15 colon, 52.3 µM; with HT29 colon it was 39.9 µM; in the assay with MALME-3M melanoma it was 74.1 µM; in the assay on HOP-92 NSCLC, more than 100 µM; in the assay with UACC-257 melanoma it was 45.9 µM.

On to `CSC1=C(C#N)C(=O)N(c2ccc(C)cc2)C(=O)C1C#N` (stereo unspecified), for which the TGI in the assay on NCI-H23 lung, in the assay on SK-MEL-2 melanoma, in the assay with BT-549 breast, in the assay with U251 CNS, in the assay with SK-MEL-5 melanoma and with RXF 393 renal was more than 100 µM in each case. Moreover, the TGI is more than 100 µM with EKVX NSCLC; more than 100 µM in the assay with HCT-15 colon; more than 100 µM in the assay with HT29 colon; more than 100 µM with MALME-3M melanoma; 82 µM in the assay on HOP-92 NSCLC; more than 100 µM with UACC-257 melanoma.

In the case of `Cc1c(-c2nc(N)c(C#N)c(N)c2C#N)c(=O)oc2ccccc12`, the TGI with NCI-H23 lung, in the assay with SK-MEL-2 melanoma, with BT-549 breast, in the assay with U251 CNS, with SK-MEL-5 melanoma and with RXF 393 renal was more than 100 µM throughout. For the same compound, the TGI in the assay with EKVX NSCLC, with HCT-15 colon, in the assay with HT29 colon, in the assay with MALME-3M melanoma, in the assay with HOP-92 NSCLC and with UACC-257 melanoma was more than 100 µM in each case.

Consider `COC(=O)c1ccc(C)cc1C1CN=NC12Cc1cc(C)ccc1C2=O` (stereo unspecified), for which the TGI in the assay on NCI-H23 lung was 66.5 µM; in the assay on SK-MEL-2 melanoma it was 45.8 µM; in the assay on BT-549 breast it was more than 85.7 µM; with U251 CNS it was more than 70.6 µM; in the assay with SK-MEL-5 melanoma it was 21.6 µM; in the assay with RXF 393 renal it was more than 71.6 µM. Moreover, the TGI was more than 95.5 µM with EKVX NSCLC; more than 100 µM in the assay on HCT-15 colon; 15.2 µM with HT29 colon; more than 100 µM in the assay with MALME-3M melanoma; 84.7 µM in the assay with HOP-92 NSCLC; more than 94.2 µM in the assay with UACC-257 melanoma.

`CC(CNC(=O)c1ccccc1)(CNC(=O)c1ccccc1)[N+](=O)[O-]`: the TGI with NCI-H23 lung, with SK-MEL-2 melanoma, in the assay on BT-549 breast, with U251 CNS, with SK-MEL-5 melanoma and with RXF 393 renal was more than 100 µM each time. Moreover, the TGI in the assay on EKVX NSCLC, in the assay on HCT-15 colon, with HT29 colon, with MALME-3M melanoma, in the assay on HOP-92 NSCLC and in the assay with UACC-257 melanoma was more than 100 µM each time.

As for `COc1cc2c(cc1O)Cc1c-2[n+](C)cc2cc(OC)c(OC)cc12`, the TGI was more than 100 µM in the assay on NCI-H23 lung; more than 100 µM in the assay on SK-MEL-2 melanoma; more than 57.9 µM with BT-549 breast; 21.5 µM in the assay on U251 CNS; 23.3 µM in the assay on SK-MEL-5 melanoma; more than 100 µM with RXF 393 renal. Also, the TGI in the assay on EKVX NSCLC, in the assay with HCT-15 colon, in the assay on HT29 colon, in the assay on MALME-3M melanoma, in the assay on HOP-92 NSCLC and in the assay with UACC-257 melanoma was more than 100 µM in each case.

As for `COCC12CCC(OC)C34C5CC6(O)C(OC)C=C(C5C6OC(=O)c5ccccc5)C(C(OC)C13)C4N(C)C2` (stereo unspecified), the TGI in the assay on NCI-H23 lung, in the assay with SK-MEL-2 melanoma, in the assay on BT-549 breast, in the assay with U251 CNS, in the assay on SK-MEL-5 melanoma and with RXF 393 renal was more than 100 µM in each case. In addition, the TGI in the assay on EKVX NSCLC, in the assay on HCT-15 colon, with HT29 colon, in the assay on MALME-3M melanoma, in the assay with HOP-92 NSCLC and with UACC-257 melanoma was more than 100 µM in each case.

As for `Cn1nc(-c2ccccc2)c2c(-c3ccccc3)c3cc(Cl)ccc3nc21`, the TGI with NCI-H23 lung, in the assay on SK-MEL-2 melanoma, in the assay with BT-549 breast, in the assay with U251 CNS, in the assay on SK-MEL-5 melanoma and with RXF 393 renal was more than 100 µM each time. The TGI is more than 100 µM in the assay on EKVX NSCLC; more than 22.9 µM in the assay on HCT-15 colon; more than 100 µM with HT29 colon; more than 100 µM in the assay on MALME-3M melanoma; more than 25 µM with HOP-92 NSCLC; more than 100 µM in the assay on UACC-257 melanoma.

In the case of `O=C1CCCCC1C(O)(C(F)(F)F)C(F)(F)Cl` (stereo unspecified), the TGI in the assay on NCI-H23 lung, in the assay with SK-MEL-2 melanoma, with BT-549 breast, in the assay with U251 CNS, in the assay on SK-MEL-5 melanoma and in the assay on RXF 393 renal was more than 10 µM in each case. Also, the TGI in the assay on EKVX NSCLC, in the assay on HCT-15 colon, in the assay on HT29 colon, with MALME-3M melanoma, with HOP-92 NSCLC and in the assay with UACC-257 melanoma was more than 10 µM in each case.

Take `Fc1cccc(C2SCc3nc4cc5ccccc5cc4n32)c1` (stereo unspecified): the TGI in the assay with NCI-H23 lung, in the assay on SK-MEL-2 melanoma, in the assay with BT-549 breast, with U251 CNS, in the assay with RXF 393 renal and in the assay on EKVX NSCLC was more than 100 µM each time. In addition, the TGI with HCT-15 colon, in the assay on HT29 colon, in the assay on MALME-3M melanoma, in the assay on HOP-92 NSCLC and with UACC-257 melanoma was more than 100 µM in each case.

Take `Cc1ccc(S(=O)(=O)ON2C(=O)c3c(N)c(C#N)c(-c4ccccc4)c(-c4ccccc4)c3C2=O)cc1`: the TGI in the assay with SK-MEL-2 melanoma is 54.2 µM; with BT-549 breast, 34.8 µM; in the assay on U251 CNS, 30.6 µM; with SK-MEL-5 melanoma it was 40.6 µM; in the assay on RXF 393 renal it was 26.5 µM; with EKVX NSCLC it was 29.1 µM. The TGI was found to be 37.6 µM in the assay on HCT-15 colon; 42.2 µM with HT29 colon; 45.8 µM with MALME-3M melanoma; 49.4 µM in the assay with HOP-92 NSCLC; 38 µM with UACC-257 melanoma.

With `c1ccc2cc(CNCCCCNCCCNCc3ccc4ccccc4c3)ccc2c1`, the TGI in the assay with NCI-H23 lung was found to be 3.43 µM; in the assay with SK-MEL-2 melanoma it was 4.16 µM; in the assay on BT-549 breast, 3.37 µM; in the assay with U251 CNS, 1.25 µM; in the assay with RXF 393 renal, 3.16 µM; with EKVX NSCLC it was 3.05 µM. Besides, the TGI in the assay with HCT-15 colon came to 1.58 µM; with HT29 colon, 0.538 µM; in the assay on MALME-3M melanoma, 3.28 µM; in the assay with HOP-92 NSCLC, 3.05 µM; in the assay on UACC-257 melanoma, 3.55 µM.

(Values after PubChem BioAssay (NCI).)
